According to patent US20240245673A1, “Papain-like protease (PLpro) inhibitors” (Pfizer Inc., priority 2022, published 2024):
Read-outs that look alike come from different tables or passages of the source.

Target: SARS-CoV-2 Papain like protease (PLpro) (Severe acute respiratory syndrome coronavirus 2 (2019-nCoV) (SARS-CoV-2), UniProt P0DTD1)
Experiment: Papain Like Protease (PLpro) biochemical assay with profluorogenic substrate Z-RLRGG-AMC
Conditions: SARS-CoV-2 PLpro 6.25 nM, 25 μM Z-RLRGG-AMC substrate, 60 minute reaction

SMILES	IC50 (read-out: IC50) [µM]	IC50 (IC50 (μM)) [µM]
Cc1cc(CSCc2nccn2C)ccc1C(=O)N[C@H](C)c1cc(-c2cnn(C)c2)nc2ccccc12 [Example 282, (R)-2-methyl-4-((((1-methyl-1H-imidazol-2-yl)methyl)thio)methyl)-N-(1-(2-(1-methyl-1H-pyrazol-4-yl)quinolin-4-yl)ethyl)benzamide]	0.006	–
Cc1ccccc1C(=O)NC(C)c1cc(CC#N)nc2ccccc12 (stereo in doubt) [Example 159, N-{(1R)-1-[2-(cyanomethyl)quinolin-4-yl]-ethyl}-2-methylbenzamide]	1.97	–
Cc1cc(COCc2cocn2)ccc1C(=O)NC1(c2cc(-c3cc(C(=O)N(C)C)n[nH]3)cc3ncccc23)CC1 [Example 350, N,N-dimethyl-5-(5-(1-(2-methyl-4-((oxazol-4-ylmethoxy)methyl)benzamido)cyclopropyl)quinolin-7-yl)-1H-pyrazole-3-carboxamide]	< 0.001	–
Cc1ccccc1C(=O)NC(C)c1cc(NCC2CCS(=O)(=O)CC2)nc2ccccc12 (centres unmarked) [Example 144, N-(1-(2-(((1,1-dioxidotetrahydro-2H-thiopyran-4-yl)methyl)-amino)quinolin-4-yl)ethyl)-2-methylbenzamide]	1.11	–
Cc1ccccc1C(=O)NC(C)c1cc(-c2cn(C)nc2C(F)(F)F)nc2ccccc12 (centres unmarked) [Example 132, 2-methyl-N-(1-{2-[1-methyl-3-(trifluoromethyl)-1H-pyrazol-4-yl]quinolin-4-yl}ethyl) benzamide]	0.844	–
Cc1ccc(CN)cc1C(=O)NC(C)c1cc(-n2ncc(C(F)(F)F)n2)nc2ccccc12 (centres unmarked) [Example 32, 5-(aminomethyl)-2-methyl-N-(1-(2-(4-(trifluoromethyl)-2H-1,2,3-triazol-2-yl)quinolin-4-yl)ethyl)benzamide]	0.676	–
Cc1ccccc1C(=O)NC(C)c1cc(CN)nc2ccccc12 (stereo in doubt) [Example 158, N-{(1R)-1-[2-(aminomethyl)quinolin-4-yl]-ethyl}-2-methylbenzamide]	5.48	–
COC(=O)c1c[nH]c(-c2cc([C@@H](C)NC(=O)c3cc(CN)ccc3C)c3ccccc3n2)c1 [Example 19, methyl(R)-5-(4-(1-(5-(aminomethyl)-2-methylbenzamido)ethyl)quinolin-2-yl)-1H-pyrrole-3-carboxylate]	0.015	–
Cc1ccccc1C(=O)NC(C)c1cc(-c2ccc(NS(C)(=O)=O)cc2)nc2ccccc12 (centres unmarked) [Example 122, N-[1-(2-{4-[(methanesulfonyl)amino]phenyl}quinolin-4-yl)ethyl]-2-methylbenzamide]	0.201	–
Cc1ccc(N2CCNCC2)cc1C(=O)NC(C)c1cc(-c2cnn(C)c2)cc2ccccc12 (centres unmarked) [Example 59, 2-methyl-N-(1-(3-(1-methyl-1H-pyrazol-4-yl)naphthalen-1-yl)ethyl)-5-(piperazin-1-yl)benzamide]	0.025	–
Cc1ccccc1C(=O)N[C@H](C)c1cc(NC2COC2)nc2ccccc12 [Example 37, (R)-2-methyl-N-(1-(2-(oxetan-3-ylamino)quinolin-4-yl)ethyl)benzamide]	10	–
Cc1cc(C(=O)NCc2cscn2)ccc1C(=O)NC1(c2cc(-c3cnn(C)c3)nc3ccccc23)CC1 [Example 254]	0.005	–
Cc1cc(CNC(=O)c2cscn2)ccc1C(=O)NC(C)c1cc(-c2cnn(C)c2)cc2ccccc12 (centres unmarked) [Example 54, N-(3-methyl-4-((1-(3-(1-methyl-1H-pyrazol-4-yl)naphthalen-1-yl)ethyl)carbamoyl)benzyl)thiazole-4-carboxamide]	0.028	–
Cc1ccc(NC(=O)[C@H]2CCCCN2)cc1C(=O)NC(C)c1cc(-c2cn[nH]c2)cc2ccccc12 (single isomer, unassigned) [Example 53, (R)—N-(3-(((R*)-1-(3-(1H-pyrazol-4-yl)naphthalen-1-yl)ethyl)carbamoyl)-4-methylphenyl)piperidine-2-carboxamide]	0.478	–
Cc1ccc(N2CCNCC2)cc1C(=O)N[C@H](C)c1cc(-c2cnn(C)c2)nc2ccccc12 [Example 55, (R)-2-methyl-N-(1-(2-(1-methyl-1H-pyrazol-4-yl)quinolin-4-yl)ethyl)-5-(piperazin-1-yl)benzamide]	0.018	–
Cc1ccccc1C(=O)NC(C)c1cc(-c2ccsc2)nc2ccccc12 (centres unmarked) [Example 119, 2-methyl-N-{1-[2-(thiophen-3-yl)quinolin-4-yl]ethyl} benzamide]	0.244	–
COC[C@@H](OCc1cscn1)c1ccc(C(=O)NC2(c3cc(-c4cnn(C)c4)cc4ncccc34)CC2)c(C)c1 (single isomer, unassigned) [Example 334]	< 0.001	–
CNC(=O)Cc1ccc(C(=O)N[C@H](C)c2cc(-c3cnn(C)c3)nc3ccccc23)c(C)c1 [Example 259, (R)-2-methyl-N-(1-(2-(1-methyl-1H-pyrazol-4-yl)quinolin-4-yl)ethyl)-4-(2-(methylamino)-2-oxoethyl)benzamide]	0.147	–

SMILES	IC50 (read-out: IC50) [µM]	IC50 (IC50 (μM)) [µM]
Cc1ccc(NC(=O)[C@H]2CCCCN2)cc1C(=O)NC(C)c1cc(-c2cnn(C)c2)cc2ccccc12 (stereo partly drawn) [Example 4, (2R)—N-(4-methyl-3-((1-(3-(1-methyl-1H-pyrazol-4-yl)naphthalen-1-yl)ethyl)carbamoyl)phenyl)piperidine-2-carboxamide]	0.023	–
CNCc1ccc(C)c(C(=O)N[C@H](C)c2cc(-c3cn[nH]c3)nc3ccccc23)c1 [Example 17, (R)—N-(1-(2-(1H-pyrazol-4-yl)quinolin-4-yl)ethyl)-2-methyl-5-((methylamino)methyl)benzamide]	0.022	–
Cc1ccccc1C(=O)NC(C)c1cc(CCn2cccn2)nc2ccccc12 (stereo in doubt) [Example 157, 2-methyl-N-[(1R)-1-{2-[2-(1H-pyrazol-1-yl)ethyl]-quinolin-4-yl}ethyl]benzamide]	2.68	–
Cc1cnc(N2CC3CCC(C2)N3)cc1C(=O)NC1(c2cc(-c3cnn(C)c3)nc3ccccc23)CC1 [Example 285, 2-(3,8-diazabicyclo[3.2.1]octan-3-yl)-5-methyl-N-(1-(2-(1-methyl-1H-pyrazol-4-yl)quinolin-4-yl)cyclopropyl)isonicotinamide]	–	0.003
Cc1ccccc1C(=O)NC(C)c1cc(-c2cn(C)nc2C)nc2ccccc12 (centres unmarked) [Example 126, N-{1-[2-(1,3-dimethyl-1H-pyrazol-4-yl)quinolin-4-yl]ethyl}-2-methylbenzamide]	0.845	–
Cc1cc(COCc2cscn2)ccc1C(=O)NC1(c2cc(-c3cc(C(N)=O)n[nH]3)nc3ccccc23)CC1 [Example 349, 5-(4-(1-(2-methyl-4-((thiazol-4-ylmethoxy)methyl)benzamido)cyclopropyl)quinolin-2-yl)-1H-pyrazole-3-carboxamide]	< 0.001	–
Cc1cc(CNC(=O)c2ncc[nH]2)ccc1C(=O)NC(C)c1cc(-c2cnn(C)c2)cc2ccccc12 (centres unmarked) [Example 62, N-(3-methyl-4-((1-(3-(1-methyl-1H-pyrazol-4-yl)naphthalen-1-yl)ethyl)carbamoyl)benzyl)-1H-imidazole-2-carboxamide]	0.039	–
Cc1ccccc1C(=O)NC(C)c1cc(-c2cnn3cccnc23)nc2ccccc12 (centres unmarked) [Example 131, 2-methyl-N-{1-[2-(pyrazolo [1,5-a]pyrimidin-3-yl)quinolin-4-yl]ethyl}benzamide]	2.91	–
Cc1cc(CNCc2cscn2)ccc1C(=O)NC(C)c1cc(-c2cnn(C)c2)cc2ccccc12 (centres unmarked) [Example 7, 2-methyl-N-(1-(3-(1-methyl-1H-pyrazol-4-yl)naphthalen-1-yl)ethyl)-4-(((thiazol-4-ylmethyl)amino)methyl)benzamide]	0.013	–
COCC(OCc1cscn1)c1ccc(C(=O)N[C@H](C)c2cc(-c3cnn(C)c3)nc3ccccc23)c(C)c1 (mixture of isomers) [Example 331, 4-(2-methoxy-1-(thiazol-4-ylmethoxy)ethyl)-2-methyl-N-((R)-1-(2-(1-methyl-1H-pyrazol-4-yl)quinolin-4-yl)ethyl)benzamide]	< 0.001	–
COC[C@H](OCc1cocn1)c1ccc(C(=O)NC2(c3cc(-c4cnn(C)c4)cc4ncccc34)CC2)c(C)c1 (single isomer, unassigned) [Example 356]	0.002	–
COC[C@@H](OCc1cscn1)c1ccc(C(=O)N[C@H](C)c2cc(-c3cnn(C)c3)nc3ccccc23)c(C)c1 (single isomer, unassigned) [Example 332, 4-((R*)-2-methoxy-1-(thiazol-4-ylmethoxy)ethyl)-2-methyl-N-((R)-1-(2-(1-methyl-1H-pyrazol-4-yl)quinolin-4-yl)ethyl)benzamide]	0.002	–
Cc1ccccc1C(=O)NC(C)c1cc(-c2scc3c2OCCO3)nc2ccccc12 (centres unmarked) [Example 104, N-{1-[2-(2,3-dihydrothieno [3,4-b][1,4]dioxin-5-yl)quinolin-4-yl]ethyl}-2-methylbenzamide]	10	–
Cc1cc(COCc2cscn2)ccc1C(=O)NC1(c2cc(-c3cnn(CS(C)(=O)=O)c3)nc3ccccc23)CC1 [Example 341, 2-methyl-N-(1-(2-(1-((methylsulfonyl)methyl)-1H-pyrazol-4-yl)quinolin-4-yl)cyclopropyl)-4-((thiazol-4-ylmethoxy)methyl)benzamide]	< 0.001	–
Cc1ccccc1C(=O)NC(C)c1cc(-c2cnn(C)c2C)nc2ccccc12 (centres unmarked) [Example 129, N-{1-[2-(1,5-dimethyl-1H-pyrazol-4-yl)quinolin-4-yl]ethyl}-2-methylbenzamide]	0.666	–
Cc1cc(C(O)C(=O)Nc2cscn2)ccc1C(=O)N[C@H](C)c1cc(-c2cnn(C)c2)nc2ccccc12 (stereo partly drawn) [Example 301, 4-(1-hydroxy-2-oxo-2-(thiazol-4-ylamino)ethyl)-2-methyl-N-((R)-1-(2-(1-methyl-1H-pyrazol-4-yl)quinolin-4-yl)ethyl)benzamide]	0.001	–
Cc1ccc(CN)cc1C(=O)NC(C)c1cc(-n2ccc(C#N)n2)nc2ccccc12 (centres unmarked) [Example 35, 5-(aminomethyl)-N-(1-(2-(3-cyano-1H-pyrazol-1-yl)quinolin-4-yl)ethyl)-2-methylbenzamide]	1.48	–
